Laboratory results reported in patent US6967196B1, “Sulfonamide compounds and uses thereof” (Bristol-Myers Squibb Company, priority 1999, dated 2005).
Where a name gives a salt, the structure may show the parent alone. Read-outs that look alike come from different tables or passages of the source. Values belong to the molecule of their own block, whether it stands above or below them.

System: amyloid β production in transfected H4 (human neuroglioma) cells stably expressing APP constructs
Experiment: In vitro cell-based assay of inhibitors of amyloid β production (ELISA)
Details: amyloid β in medium by ELISA, read-out: ACTIVITY (IC50, inhibition of amyloid β production)
Description: In Vitro Cell-Based Assay of Inhibitors of Amyloid β Production
Transfected H4 (human neuroglioma) cells stably expressing APP constructs are used to identify and assess inhibitors of Aβ production. In brief, cells lines are exposed to compounds, and the effect of each compound on amyloid β production is determined by measuring the amount of amyloid β produced using an enzyme linked immunosorbent assay (ELISA) that detects amyloid β (see, for example, Seubert et al., (1992) Nature, 359:325-327).
Transfected cells that stably express wild-type and variant forms of APP are plated in 96-well format plates at a density sufficient for the rapid detection of the secreted amyloid β (experimentally predetermined for a particular stable cell population). Cells are plated at least six hours prior to the introduction of the test compound at which time the growth medium is replaced by fresh medium containing the compound to be tested. All synthetic agents are initially screened at doses ranging from 10-100 μM. Higher dilutions of agents can be used to minimize cytotoxicity. Incubation of cells with a test compound continues for approximately 16 hours at which time aliquots of medium from each well are removed and assayed for amyloid β.
ELISA is carried out by methods known in the art (see, e.g., Haass et al., Antibodies: A Laboratory Manual, Harlow and lane, Editors, Cold Spring Harbor Press, 1988) The capture antibody is typically a mouse monoclonal (IgG1/kβ-APPa) which recognizes the carboxyl terminal epitope of amyloid β. The specificity of the capture antibody insures measurement of amyloid β without interference from other secreted APP fragments that share amino acid sequence (amyloid β 1-16) homology with amyloid β but lack the carboxy-terminal region. The detecting antibody is typically an affinity-purified rabbit polyclonal antibody that is specific for the amino terminus of amyloid β.
Results from test compounds are compared to results obtained when cells are treated with control agents. Amyloid β levels are determined by comparison to a standard curve obtained by subjecting a range of known amounts of amyloid β to the ELISA.
A compound is identified as “active” when it inhibits cellular production of amyloid β relative to levels in control samples by at least 50% at the initial tested concentration without significant cytotoxicity. Active compounds are then assayed in dose-response experiments to determine the lowest dose of compound necessary for inhibition of amyloid β production.

[1] = transfected H4 cells stably expressing APP, approx. 16 h incubation
[2] = Homo sapiens, 16 h, transfected H4 cells stably expressing APP, approximately 16 hours incubation, Table B
[3] = transfected H4 cells stably expressing APP constructs, approximately 16 hours incubation
[4] = Homo sapiens, 16 h, transfected H4 cells stably expressing APP, approximately 16 hours incubation
[5] = Homo sapiens, 16 h, transfected H4 cells stably expressing APP constructs, approximately 16 hours incubation
[6] = transfected H4 cells stably expressing APP, approximately 16 hours incubation
[7] = Homo sapiens, 16 h, transfected H4 cells expressing APP, approximately 16 hours incubation

IC50 [1]: 100 to 500 nM
Molecule: 4-bromo-N-{3-[2-(1-{[(4-chlorophenyl)sulfonyl]-2,5-difluoroanilino}ethyl)phenoxy]propyl}-N-methylbenzamide [Example 683]

IC50 [2]: 50 to 100 nM
Molecule: CC(c1ccccc1OCCCNC(=O)c1c(F)cccc1F)N(c1cc(F)ccc1F)S(=O)(=O)c1ccc(Cl)cc1 (stereo not shown) [Example 408, N-{3-[2-(1-{[(4-chlorophenyl)sulfonyl]-2,5-difluoroanilino}ethyl)phenoxy]propyl}-2,6-difluorobenzamide]

IC50 (Homo sapiens, 16 h, transfected H4 cells stably expressing APP, approx. 16 h incubation): 100 to 500 nM
Molecule: O=C(C1CC1c1ccccc1)N1CCCCC1CCOc1ccccc1CN(c1cc(F)ccc1F)S(=O)(=O)c1ccc(Cl)cc1 (stereo not shown) [Example 780, 4-chloro-N-(2,5-difluorophenyl)-N-[2-(2-{1-[(2-phenylcyclopropyl)carbonyl]-2-piperidinyl}ethoxy)benzyl]benzenesulfonamide]

IC50 [2]: 50 to 100 nM
Molecule: CC(c1ccccc1OCCCCN(C)C(=O)CSc1ccccc1)N(c1cc(F)ccc1F)S(=O)(=O)c1ccc(Cl)cc1 (stereo not shown) [Example 384, N-{4-[2-(1-{[(4-chlorophenyl)sulfonyl]-2,5-difluoroanilino}ethyl)phenoxy]butyl}-N-methyl-2-(phenylsulfanyl)acetamide]

Molecule: CSCCC[C@@H](C)N(c1cc(Cl)ccc1F)S(=O)(=O)c1ccc(Cl)cc1 [Example 1178, 4-chloro-N-[5-chloro-2-fluorophenyl]-N-[1(R)-methyl-(4-methylthio)butyl]benzenesulfonamide]
IC50 [3]: ≤ 25 nM

IC50 [1]: 100 to 500 nM
Molecule: 2-((1R)-1-{[(4-chlorophenyl)sulfonyl]-2,5-difluoroanilino}ethyl)-5-fluorobenzyl 2-phenylethylcarbamate [Example 640]

Molecule: C[C@H](CCCN1CCC(S(C)(=O)=O)CC1)N(c1cc(Cl)ccc1Cl)S(=O)(=O)c1ccc(Cl)cc1 [Example 1126, 4-chloro-N-(2,5-dichlorophenyl)-N-[4-[(4-methylsulfonyl)-1-piperidinyl]-1(R)-methylbutyl]benzenesulfonamide]
IC50 [3]: 50 to 100 nM

IC50 [2]: 50 to 100 nM
Molecule: C[C@H](c1ccccc1CCC(=O)Nc1ccccc1)N(c1cc(F)ccc1F)S(=O)(=O)c1ccc(Cl)cc1 [Example 403, 3-[2-((1R)-1-{[(4-chlorophenyl)sulfonyl]-2,5-difluoroanilino}ethyl)phenyl]-N-phenylpropanamide]

IC50 [4]: 100 to 500 nM
Molecule: O=S(=O)(c1ccc(Cl)cc1)N(Nc1cc(F)ccc1F)[C@H](CO)c1ccccc1 [Example 868, 4-chloro-N-(2,5-difluoroanilino)-N-[(1S)-2-hydroxy-1-phenylethyl]benzenesulfonamide]

IC50 [5]: ≤ 25 nM
Molecule: COC(=O)C1SCCN1CCC[C@@H](C)N(c1cc(Cl)ccc1Cl)S(=O)(=O)c1ccc(Cl)cc1 (stereo partly drawn) [Example 1105, 4-chloro-N-(2,5-dichlorophenyl)-N-[4-(2-methoxycarbonyl-3-thiazolidinyl)-1(R)-methylbutyl]benzenesulfonamide]

Molecule: COC(=O)[C@@H](NC(=O)CCC[C@@H](C)N(c1cc(Cl)ccc1F)S(=O)(=O)c1ccc(Cl)cc1)C(C)C [Example 1264, (R)-4-Chloro-N-(5-chloro-2-fluorophenyl)-N-[5-[N-(S)-[1-(methoxycarbonyl)-2-methylpropyl]amino]-1-methyl-6-oxopentyl]benzenesulfonamide]
IC50 [3]: 100 to 500 nM

IC50 [6]: 100 to 500 nM
Molecule: 3-bromo-N-{3-[2-(1-{[(4-chlorophenyl)sulfonyl]-2,5-difluoroanilino}ethyl)phenoxy]propyl}benzamide [Example 829]

IC50 [5]: ≤ 25 nM
Molecule: CCNS(=O)(=O)CCC[C@@H](C)N(c1cc(Cl)ccc1Cl)S(=O)(=O)c1ccc(Cl)cc1 [Example 1208, 4-chloro-N-[2,5-dichlorophenyl]-N-[4-[(ethylamino)sulfonyl]-1(R)-methylbutyl]benzenesulfonamide]

IC50 [4]: > 500 nM
Molecule: O=[N+]([O-])c1ccc(S(=O)(=O)CCCOc2ccccc2CN(c2cc(F)ccc2F)S(=O)(=O)c2ccc(Cl)cc2)cc1 [Example 905, 4-chloro-N-(2,5-difluorophenyl)-N-(2-{3-[(4-nitrophenyl)sulfonyl]propoxy}benzyl)benzenesulfonamide]

IC50 [1]: 100 to 500 nM
Molecule: 2-[2-((1R)-1-{[(4-chlorophenyl)sulfonyl]-2,5-difluoroanilino}ethyl)phenyl]ethyl phenylcarbamate [Example 762]

IC50 [7]: > 500 nM
Molecule: COc1ccc(CNC(=O)[C@@H](C)N(c2cc(Cl)ccc2F)S(=O)(=O)c2ccc(Cl)cc2)cc1 [Example 1361]

IC50 [1]: 100 to 500 nM
Molecule: N-{3-[2-(1-{[(4-chlorophenyl)sulfonyl]-2,5-difluoroanilino}ethyl)phenoxy]propyl}-N,4-dimethylbenzamide [Example 741]

Molecule: O=S1(=O)CCN(CCCOc2ccccc2CN(c2ccccc2)S(=O)(=O)c2ccc(Cl)cc2)CC1 [Example 492, 4-chloro-N-{2-[3-(1,1-dioxido-4-thiomorpholinyl)propoxy]benzyl}-N-phenylbenzenesulfonamide hydrochloride]
IC50 [2]: 100 to 500 nM

IC50 [6]: 100 to 500 nM
Molecule: 3-bromo-N-{3-[2-(1-{[(4-chlorophenyl)sulfonyl]-2,5-difluoroanilino}ethyl)phenoxy]propyl}-N-methylbenzamide [Example 820]

IC50 [4]: > 500 nM
Molecule: O=S(=O)(c1ccc(Cl)cc1)N(Cc1ccccc1OCCCN1CCCCC1)C1CCCCCC1 [Example 897, 4-chloro-N-cycloheptyl-N-{2-[3-(1-piperidinyl)propoxy]benzyl}benzenesulfonamide hydrochloride]

IC50 [1]: 100 to 500 nM
Molecule: N-{3-[2-({[(4-chlorophenyl)sulfonyl]-2,5-difluoroanilino}methyl)phenoxy]propyl}-N-methylbenzamide [Example 800]

IC50 [5]: ≤ 25 nM
Molecule: C[C@H](CCC[N+](=O)[O-])N(c1cc(Cl)ccc1Cl)S(=O)(=O)c1ccc(Cl)cc1 [Example 1099, 4-chloro-N-(2,5-dichlorophenyl)-N-[4-nitro-1(R)-methylbutyl]benzenesulfonamide]

IC50 [7]: 100 to 500 nM
Molecule: C[C@H](C(=O)NCc1ccco1)C(c1cc(Cl)ccc1F)S(=O)(=O)c1ccc(Cl)cc1 (stereo partly shown) [Example 1300]

IC50 [1]: 100 to 500 nM
Molecule: N-{3-[2-(1-{[(4-chlorophenyl)sulfonyl]-2,5-difluoroanilino}ethyl)phenoxy]propyl}-4-iodo-N-methylbenzamide [Example 719]

Molecule: O=S(=O)(c1ccc(Cl)cc1)N(Cc1ccccc1OCCCN1CCCC(O)C1)c1ccccc1 (stereo not shown) [Example 915, 4-chloro-N-{2-[3-(3-hydroxy-1-piperidinyl)propoxy]benzyl}-N-phenylbenzenesulfonamide hydrochloride]
IC50 [4]: > 500 nM

IC50 [4]: > 500 nM
Molecule: C[C@H](c1ccccc1CCO)N(c1cc(F)ccc1F)S(=O)(=O)c1ccc(Cl)cc1 [Example 1055, 4-chloro-N-(2,5-difluorophenyl)-N-{(1R)-1-[2-(2-hydroxyethyl)phenyl]ethyl}benzenesulfonamide]

IC50 [6]: > 500 nM
Molecule: C[C@H](c1ccc(F)cc1CCCC(=O)O)N(c1cc(F)ccc1F)S(=O)(=O)c1ccc(Cl)cc1 [Example 1067, 4-[2-((1R)-1-{[(4-chlorophenyl)sulfonyl]-2,5-difluoroanilino}ethyl)-5-fluorophenyl]butanoic acid]

IC50 [4]: > 500 nM
Molecule: O=S(=O)(c1ccc(Cl)cc1)N(Cc1ccccc1OCCCN1CCNCC1)c1ccccc1 [Example 944, 4-chloro-N-phenyl-N-{2-[3-(1-piperazinyl)propoxy]benzyl}benzenesulfonamide dihydrochloride]

IC50 [4]: > 500 nM
Molecule: O=S(=O)(c1ccc(Cl)cc1)N(Cc1ccccc1)Cc1ccccc1OCCCN1CCCCC1 [Example 886, N-benzyl-4-chloro-N-{2-[3-(1-piperidinyl)propoxy]benzyl}benzenesulfonamide hydrochloride]

Molecule: C[C@H](CCCN(C)S(C)(=O)=O)N(c1cc(Cl)ccc1F)S(=O)(=O)c1ccc(Cl)cc1 [Example 1101]
IC50 [3]: ≤ 25 nM

IC50 [1]: 100 to 500 nM
Molecule: N-{3-[2-({[(4-chlorophenyl)sulfonyl]-2,5-difluoroanilino}methyl)phenoxy]propyl}-2-iodo-N-methylbenzamide [Example 716]
